{"source": "the supplement of paper PMC9663587", "key": {"YKL-5-124": {"compound": "C=CC(=O)Nc1ccc(C(=O)Nc2[nH]nc3c2CN(C(=O)N[C@H](CN(C)C)c2ccccc2)C3(C)C)cc1 [YKL-5-124]", "assay": "increase in dead-cell fraction, 72 h; higher = more death;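 note: breast cancer cell lines in 384-well plates, stained with Hoechst plus LIVE/DEAD far red dye and imaged, cells above an LDR intensity threshold counted dead, Hoechst-negative corpses included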"}, "THZ531 [1]": {"compound": "T1, CN(C)C/C=C/C(=O)Nc1ccc(C(=O)N2CCC[C@@H](Nc3ncc(Cl)c(-c4c[nH]c5ccccc45)n3)C2)cc1 [THZ531]", "assay": "increase in dead-cell fraction, 72 h; higher = more death"}, "[2]": {"compound": "CCc1cnn2c(NCc3ccc[n+]([O-])c3)cc(N3CCCC[C@H]3CCO)nc12", "assay": "increase in dead-cell fraction, 72 h; higher = more death"}, "BSJ-03-123 [3]": {"compound": "T2, CC(=O)c1c(C)c2cnc(Nc3ccc(N4CCN(CCOCCOCCOCCNC(=O)COc5cccc6c5C(=O)N(C5CCC(=O)NC5=O)C6=O)CC4)cn3)nc2n(C2CCCC2)c1=O [BSJ-03-123]", "assay": "increase in dead-cell fraction, 72 h; higher = more death"}, "Neratinib/HKI272 [4]": {"compound": "T3, CCOc1cc2ncc(C#N)c(Nc3ccc(OCc4ccccn4)c(Cl)c3)c2cc1NC(=O)/C=C/CN(C)C [Neratinib/HKI272]", "assay": "increase in dead-cell fraction, 72 h; higher = more death"}, "THZ1": {"compound": "CN(C)C/C=C/C(=O)Nc1ccc(C(=O)Nc2cccc(Nc3ncc(Cl)c(-c4c[nH]c5ccccc45)n3)c2)cc1 [THZ1]", "assay": "increase in dead-cell fraction, 72 h; higher = more death"}, "Vorinostat": {"compound": "O=C(CCCCCCC(=O)Nc1ccccc1)NO [Vorinostat]"}, "Ceritinib/LDK378": {"compound": "Cc1cc(Nc2ncc(Cl)c(Nc3ccccc3S(=O)(=O)C(C)C)n2)c(OC(C)C)cc1C1CCNCC1 [Ceritinib/LDK378]"}, "Taselisib/GDC0032": {"compound": "Cc1nc(-c2cn3c(n2)-c2ccc(-c4cnn(C(C)(C)C(N)=O)c4)cc2OCC3)n(C(C)C)n1 [Taselisib/GDC0032]"}, "INK128/MLN0128": {"compound": "CC(C)n1nc(-c2ccc3oc(N)nc3c2)c2c(N)ncnc21 [INK128/MLN0128]"}, "[5]": {"compound": "CC(=O)c1c(C)c2cnc(Nc3ccc(N4CCNCC4)cn3)nc2n(C2CCCC2)c1=O"}, "THZ531 [6]": {"compound": "T1, THZ531"}, "Dasatinib": {"compound": "Cc1nc(Nc2ncc(C(=O)Nc3c(C)cccc3Cl)s2)cc(N2CCN(CCO)CC2)n1 [Dasatinib]"}, "BSJ-01-175": {"compound": "CN(C)C/C=C/C(=O)Nc1ccc(O[C@@H]2CCC[C@@H](Nc3ncc(Cl)c(-c4c[nH]c5ccccc45)n3)C2)cc1 [BSJ-01-175]"}, "[7]": {"compound": "CO[C@@H](C)Cn1c(=O)n(C)c2cnc3ccc(-c4cncc(C(C)(C)O)c4)cc3c21"}, "Rucaparib": {"compound": "CNCc1ccc(-c2[nH]c3cc(F)cc4c3c2CCNC4=O)cc1 [Rucaparib]"}, "BSJ-03-123 [8]": {"compound": "T2, BSJ-03-123"}, "[9]": {"compound": "CC(=O)Nc1cccc(-n2c(=O)n(C3CC3)c(=O)c3c(Nc4ccc(I)cc4F)n(C)c(=O)c(C)c32)c1"}, "Volasertib/BI6727": {"compound": "CC[C@@H]1C(=O)N(C)c2cnc(Nc3ccc(C(=O)N[C@H]4CC[C@H](N5CCN(CC6CC6)CC5)CC4)cc3OC)nc2N1C(C)C [Volasertib/BI6727]"}, "Doxorubicin": {"compound": "COc1cccc2c1C(=O)c1c(O)c3c(c(O)c1C2=O)C[C@@](O)(C(=O)CO)C[C@@H]3O[C@H]1C[C@H](N)[C@H](O)[C@H](C)O1 [Doxorubicin]"}, "Neratinib/HKI272 [10]": {"compound": "T3, Neratinib/HKI272"}}, "data": [{"cell line": "HCC1187", "values": [{"measurement": "increase in dead-cell fraction", "setting": "YKL-5-124; 0.001 µM", "value": 0.0446}, {"measurement": "increase in dead-cell fraction", "setting": "YKL-5-124; 0.003162 µM", "value": 0.0713}, {"measurement": "increase in dead-cell fraction", "setting": "YKL-5-124; 0.01 µM", "value": 0.133}, {"measurement": "increase in dead-cell fraction", "setting": "YKL-5-124; 0.03162 µM", "value": 0.0654}, {"measurement": "increase in dead-cell fraction", "setting": "YKL-5-124; 0.1 µM", "value": 0.0694}, {"measurement": "increase in dead-cell fraction", "setting": "YKL-5-124; 0.3162 µM", "value": 0.0946}, {"measurement": "increase in dead-cell fraction", "setting": "YKL-5-124; 1 µM", "value": 0.164}, {"measurement": "increase in dead-cell fraction", "setting": "YKL-5-124; 3.162 µM", "value": 0.17}, {"measurement": "increase in dead-cell fraction", "setting": "YKL-5-124; 10 µM", "value": 0.406}, {"measurement": "increase in dead-cell fraction", "setting": "THZ531 [1]; 0.0001 µM", "value": 0.0118}, {"measurement": "increase in dead-cell fraction", "setting": "THZ531 [1]; 0.0003162 µM", "value": -0.0088}, {"measurement": "increase in dead-cell fraction", "setting": "THZ531 [1]; 0.001 µM", "value": -0.0009}, {"measurement": "increase in dead-cell fraction", "setting": "THZ531 [1]; 0.003162 µM", "value": -0.0126}, {"measurement": "increase in dead-cell fraction", "setting": "THZ531 [1]; 0.01 µM", "value": -0.0087}, {"measurement": "increase in dead-cell fraction", "setting": "THZ531 [1]; 0.03162 µM", "value": -0.0107}, {"measurement": "increase in dead-cell fraction", "setting": "THZ531 [1]; 0.1 µM", "value": 0.36}, {"measurement": "increase in dead-cell fraction", "setting": "THZ531 [1]; 0.3162 µM", "value": 0.611}, {"measurement": "increase in dead-cell fraction", "setting": "[2]; 0.0001 µM", "value": 0.0033}, {"measurement": "increase in dead-cell fraction", "setting": "[2]; 0.0003162 µM", "value": 0.0035}, {"measurement": "increase in dead-cell fraction", "setting": "[2]; 0.001 µM", "value": 0.0039}, {"measurement": "increase in dead-cell fraction", "setting": "[2]; 0.003162 µM", "value": 0.0055}, {"measurement": "increase in dead-cell fraction", "setting": "[2]; 0.01 µM", "value": 0.0539}, {"measurement": "increase in dead-cell fraction", "setting": "[2]; 0.03162 µM", "value": 0.56}, {"measurement": "increase in dead-cell fraction", "setting": "[2]; 0.1 µM", "value": 0.662}, {"measurement": "increase in dead-cell fraction", "setting": "[2]; 0.3162 µM", "value": 0.668}, {"measurement": "increase in dead-cell fraction", "setting": "[2]; 1 µM", "value": 0.598}, {"measurement": "increase in dead-cell fraction", "setting": "BSJ-03-123 [3]; 0.001 µM", "value": 0.0005}, {"measurement": "increase in dead-cell fraction", "setting": "BSJ-03-123 [3]; 0.003162 µM", "value": -0.0076}, {"measurement": "increase in dead-cell fraction", "setting": "BSJ-03-123 [3]; 0.01 µM", "value": -0.0142}, {"measurement": "increase in dead-cell fraction", "setting": "BSJ-03-123 [3]; 0.03162 µM", "value": -0.0171}, {"measurement": "increase in dead-cell fraction", "setting": "BSJ-03-123 [3]; 0.1 µM", "value": 0.013}, {"measurement": "increase in dead-cell fraction", "setting": "BSJ-03-123 [3]; 0.3162 µM", "value": 0.0153}, {"measurement": "increase in dead-cell fraction", "setting": "BSJ-03-123 [3]; 1 µM", "value": 0.037}, {"measurement": "increase in dead-cell fraction", "setting": "BSJ-03-123 [3]; 3.162 µM", "value": 0.0469}, {"measurement": "increase in dead-cell fraction", "setting": "BSJ-03-123 [3]; 10 µM", "value": 0.323}, {"measurement": "increase in dead-cell fraction", "setting": "Neratinib/HKI272 [4]; 0.0003162 µM", "value": -0.0132}, {"measurement": "increase in dead-cell fraction", "setting": "Neratinib/HKI272 [4]; 0.001 µM", "value": 0.0086}, {"measurement": "increase in dead-cell fraction", "setting": "Neratinib/HKI272 [4]; 0.003162 µM", "value": -0.0045}, {"measurement": "increase in dead-cell fraction", "setting": "Neratinib/HKI272 [4]; 0.01 µM", "value": -0.0058}, {"measurement": "increase in dead-cell fraction", "setting": "Neratinib/HKI272 [4]; 0.03162 µM", "value": -0.0052}, {"measurement": "increase in dead-cell fraction", "setting": "Neratinib/HKI272 [4]; 0.1 µM", "value": -0.002}, {"measurement": "increase in dead-cell fraction", "setting": "Neratinib/HKI272 [4]; 0.3162 µM", "value": 0.0006}, {"measurement": "increase in dead-cell fraction", "setting": "Neratinib/HKI272 [4]; 1 µM", "value": 0.0155}, {"measurement": "increase in dead-cell fraction", "setting": "Neratinib/HKI272 [4]; 3.162 µM", "value": 0.0076}, {"measurement": "increase in dead-cell fraction", "setting": "THZ1; 0.0001 µM", "value": -0.0047}, {"measurement": "increase in dead-cell fraction", "setting": "THZ1; 0.0003162 µM", "value": -0.0081}, {"measurement": "increase in dead-cell fraction", "setting": "THZ1; 0.001 µM", "value": 0.0016}, {"measurement": "increase in dead-cell fraction", "setting": "THZ1; 0.003162 µM", "value": 0.019}, {"measurement": "increase in dead-cell fraction", "setting": "THZ1; 0.01 µM", "value": 0.0061}, {"measurement": "increase in dead-cell fraction", "setting": "THZ1; 0.03162 µM", "value": 0.113}, {"measurement": "increase in dead-cell fraction", "setting": "THZ1; 0.1 µM", "value": 0.421}, {"measurement": "increase in dead-cell fraction", "setting": "THZ1; 0.3162 µM", "value": 0.568}, {"measurement": "increase in dead-cell fraction", "setting": "THZ1; 1 µM", "value": 0.624}, {"measurement": "GR50, 72 h", "setting": "Vorinostat", "value": 1.07, "unit": "µM"}, {"measurement": "GR50, 72 h", "setting": "Ceritinib/LDK378", "value": 1.49, "unit": "µM"}, {"measurement": "GR50, 72 h", "setting": "Taselisib/GDC0032", "value": 0.168, "unit": "µM"}, {"measurement": "GR50, 72 h", "setting": "INK128/MLN0128", "value": 0.0661, "unit": "µM"}, {"measurement": "GR50, 72 h", "setting": "[5]", "value": "> 3.16", "unit": "µM"}, {"measurement": "GR50, 72 h", "setting": "THZ531 [6]", "value": 0.0529, "unit": "µM"}, {"measurement": "GR50, 72 h", "setting": "Dasatinib", "value": 0.0343, "unit": "µM"}, {"measurement": "GR50, 72 h", "setting": "BSJ-01-175", "value": 0.00928, "unit": "µM"}, {"measurement": "GR50, 72 h", "setting": "[7]", "value": 1.12, "unit": "µM"}, {"measurement": "GR50, 72 h", "setting": "Rucaparib", "value": "> 10", "unit": "µM"}, {"measurement": "GR50, 72 h", "setting": "BSJ-03-123 [8]", "value": 6.39, "unit": "µM"}, {"measurement": "GR50, 72 h", "setting": "[9]", "value": "> 1", "unit": "µM"}, {"measurement": "GR50, 72 h", "setting": "Volasertib/BI6727", "value": 0.0078, "unit": "µM"}, {"measurement": "GR50, 72 h", "setting": "Doxorubicin", "value": 0.00119, "unit": "µM"}, {"measurement": "GR50, 72 h", "setting": "Neratinib/HKI272 [10]", "value": 2.5, "unit": "µM"}]}]}
